Test results from patent publication US5607966A, “Esters and amides of non-steroidal anti-inflammatory carboxylic acids which may be used as anti-oxidants, 5-lipoxygenase inhibitors and non-steroidal anti-inflammatory prodrugs” (Alcon Laboratories, Inc., priority 1994, dated 1997).

Columns and labels:
[1] = test system: endotoxin-induced uveitis in female Lewis rats (neutrophil influx into ocular tissue); assay: endotoxin-induced uveitis model, neutrophil influx (MPO activity) into the eye after topical administration; format: in vivo, rat (female Lewis); conditions: for % Inhibition of Influx: topical 5 μl to each eye, 24 hours post endotoxin; for inhibition of neutrophil influx into the rat eye (in words): endotoxin induced uveitis, following topical administration
Procedure: The topical ophthalmic activity of representative compounds of the present invention, as compared with dexamethasone, is shown in Table 5 below. The compounds were evaluated in an endotoxin-induced uveitis model. This subacute model of ocular inflammation is characterized by the infiltration of neutrophils into the ocular tissue following administration of an endotoxin.
Ocular inflammation in female Lewis rats was initiated by hindpaw injection of 0.1 milliliters [ml] sterile saline (0.9% NaCl, weight:volume [w:v]) containing […] bacterial endotoxin (LPS; Escherichia coli 055:B5). Test compound or vehicle (carbopol/maxidex), 5 μl, was administered topically to each eye of the experimental animal 20 and 24 hours prior to endotoxin injection, immediately before endotoxin injection, and 4 and 20 hours after endotoxin injection. Twenty-four hours post endotoxin injection, animals were sacrificed by CO2 inhalation, and total ocular polymorphonuclear neutrophil (PMN) content was assessed indirectly by determination of myleoperoxide activity (MPO).
Ocular tissues were prepared for the quantification of neutrophil content as follows: Eyes were homogenized in 2.5 ml of ice-cold 50 mM phosphate/10mM N-ethylmaleimide buffer. The Brinkman homogenation probe was rinsed three (3) times with 2.5 ml of the same buffer and the probe washings were combined with the initial tissue homogenate. The homogenate was centrifuged for 30 minutes at 12,000×gravitational constant [g] at 4° C. The supernatant was discarded and the proteinaceous pellet was solubilized on 0.5 ml of ice-cold 0.5% hexadecyltrimethyl ammonium bromide (HTABr)/50 mM phosphate buffer (pH 6.0). The detergent-treated pellet homogenate was centrifuged at 4° C. for 30 minutes at 12,000×g and the supernatant collected and assayed for MPO activity in a buffer containing 50 mM phosphate/250 mM HTABr/250 μM hydrogen peroxide and 1.5 mM o-dianisidine (pH 6.0). o-Dianisidine oxidation was monitored spectrophotometrically at a wavelength of 460 nanometers [nm].

bovine retinal pieces = assay: inhibition of lipid peroxide formation (TBARS) in bovine retinal pieces after hypoxia/reoxygenation; format: cell-based; conditions: hypoxia 1 hour, reoxygenated for 1 hour, agent added after 50 minutes of hypoxia
Procedure: The cytoprotective effects of the compounds were measured using bovine retinal pieces. Retinal tissues were incubated in hypoxic media for 1 hour. After 50 minutes of hypoxia, test agents were added to the media to allow 10 minutes for the drug to diffuse into the tissue prior to reoxygenation. The vehicle by itself, was added to the non-drug group. Following the incubation period, tissue was reoxygenated for 1 hour. Lipid peroxidation was assessed by the formation of thiobarbituric acid reacting substances (TBARS). The tissues were homogenized and added to the trichloroacetic acid-thiobarbituric acid reagent and heated in the presence of BHT. The homogenate was filtered and the absorbance of the supernant was measured spectrophotometrically. A double derivative technique was used to calculate the concentration of TBARS present in each sample. Quantitation was based on a molar extinction coefficient of 1.56×10^5.

[2] = phospholipid oxidation assay (conjugate diene formation in liposomes, Fe+3/EDTA and ascorbate); format: biochemical; conditions: Fe+3/EDTA (167 μM) and ascorbate (167 μM), one hour
Procedure: Antioxidant activity was measured using a phospholipid oxidation assay. Liposomes were formed from dilineoleolylphosphocholine and the test compound. Free radical damage was induced by exposure to Fe^+3 /EDTA (167 micromolar [μM]) and ascorbate (167 μM). Oxidation was terminated after one hour by freezing in liquid nitrogen. Lyophilized samples were then dissolved in methanol or water. Oxidation was measured by conjugate diene formation, monitored using UV spectroscopy as described in Biochimica et Biophyica Acta, volume 1081, 181-187, (1991). The IC50 was calculated using the following non-linear regression algorithm: Y=A/[1+(B/X)^c ], wherein A=maximum, B=IC^50 and c=cooperativity or relative broadness of the curves. The minimum was assumed to be zero.

5-lipoxygenase = molecular target: T1, 5-lipoxygenase (Oryctolagus cuniculus, UniProt G1SNX0); assay: 5-lipoxygenase inhibition (5-HETE and LTB4 formation) in A23187-stimulated rabbit neutrophils; format: cell-based, rabbit (New Zealand Albino); conditions: A23187 5.0 μM, arachidonic acid 52 μM, 3 minutes at 37° C.
T1 construct: neutrophils isolated from rabbit peripheral blood; endogenous in cells; host or cells: neutrophils from peripheral blood of New Zealand Albino rabbits
T1 sequence (G1SNX0 1-674): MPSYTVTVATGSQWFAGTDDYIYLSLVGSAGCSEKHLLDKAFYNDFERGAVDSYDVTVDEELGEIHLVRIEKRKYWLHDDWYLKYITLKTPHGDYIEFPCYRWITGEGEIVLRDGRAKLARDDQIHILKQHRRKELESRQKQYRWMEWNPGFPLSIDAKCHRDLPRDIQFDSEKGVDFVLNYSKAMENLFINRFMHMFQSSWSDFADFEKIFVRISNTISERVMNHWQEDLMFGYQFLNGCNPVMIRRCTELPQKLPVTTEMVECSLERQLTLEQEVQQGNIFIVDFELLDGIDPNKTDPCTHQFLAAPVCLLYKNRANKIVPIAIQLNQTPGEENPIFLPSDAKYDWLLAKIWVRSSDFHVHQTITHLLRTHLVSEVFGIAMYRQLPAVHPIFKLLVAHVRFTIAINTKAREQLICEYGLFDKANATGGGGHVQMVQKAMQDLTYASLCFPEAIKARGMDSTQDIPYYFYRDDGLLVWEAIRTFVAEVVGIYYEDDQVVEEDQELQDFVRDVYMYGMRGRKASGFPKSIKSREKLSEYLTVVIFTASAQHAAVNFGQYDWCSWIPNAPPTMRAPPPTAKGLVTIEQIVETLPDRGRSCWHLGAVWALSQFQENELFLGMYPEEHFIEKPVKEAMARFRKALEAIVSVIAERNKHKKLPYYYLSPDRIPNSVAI
Procedure: The 5-lipoxygenase inhibitor activity was determined by measuring the inhibition of 5-HETE and LTB4 formation. The ability of a compound to suppress 5-HETE and LTB4 formation was investigated in calcium ionophore (A23187)-stimulated neutrophils isolated from rabbit peripheral blood. Neutrophils were isolated by standard procedures. Briefly, heparinized/calcium chelated blood was obtained from New Zealand Albino (NZA) rabbits by heart puncture. Red cells were removed at 4° C. by dextran sedimentation,as described in Blood, volume 11, 436 (1956). White cells, contained in the supernatant fraction, were sedimented by centrifugation and contaminating red cells removed by hypotonic lysis. The white cell pellet obtained, following red cell lysis and centrifugation, was resuspended in Dulbecco's PBS (Ca^2+ /Mg^2+ -free) and layered onto a 60% Histopaque-1083®/40% Histopaque-1119® cushion (Sigma Chemical, St. Louis, Mo., U.S.A.). The Histopaque® cushion was then centrifuged, and the resulting neutrophil pellet was washed and resuspended in 1/25 of the original blood volume. Aliquots of the cell suspension were pretreated for 5 minutes at 37° C. with carrier (DMSO) or test article dissolved in DMSO. CaCl2 was immediately added to the cell suspension and cells stimulated by addition of 5 microliters [μl] of a mixture containing [1-^14 C]-arachidonic acid and A23187 in DMSO. […]

With `C[C@@H]1C[C@H]2[C@@H]3CCC4=CC(=O)C=C[C@]4(C)[C@@]3(F)[C@@H](O)C[C@]2(C)[C@@]1(O)C(=O)CO` [Dexamethasone, reference compound] the “% Inhibition of Influx” value ([1]; concentration 0.1%) was 93%.
`COc1ccc2cc(C(C)C(=O)OCC3(C)Cc4c(C)c(O)c(C)c(C)c4O3)ccc2c1` (stereo not drawn) [Compound E, 2-(5-hydroxy-2,4,6,7-tetramethyl-2,3-dihydro-benzo[1,2-b]furan-2-yl)methyl2-(6-methoxy-2-naphthyl)propionate] gave an IC50 (bovine retinal pieces; Bos taurus) of 0.01 µM.
For `COc1ccc2cc(C(C)C(=O)OCC3(C)CCc4c(C)c(O)c(C)c(C)c4O3)ccc2c1` (stereo not drawn) [Compound B, 2-(6-hydroxy-2,5,7,8-tetramethyl-3,4-dihydro-2H-benzo[1,2-b]pyran-2-yl)methyl 2-(6-methoxy-2-naphthyl)propionate], the IC50 [2] was 1.16 µM.
Molecule `COc1ccc2cc(C(C)C(=O)OCCC3(C)Cc4c(C)c(O)c(C)c(C)c4O3)ccc2c1` (stereo not drawn) [Compound F, 2-(5-hydroxy-2,4,6,7-tetramethyl-2,3-dihydro-benzo[1,2-b]furan-2-yl)ethyl 2-(6-methoxy-2-naphthyl)propionate] has an IC50 [2] of 2.55 µM.
Vitamin E [reference compound] showed an IC50 (bovine retinal pieces) of 5 µM and an IC50 [2] of 4.42 µM.
In the case of `COc1ccc2cc(C(C)C(=O)N(C)CC(O)c3ccc(O)c(O)c3)ccc2c1` (stereo not drawn) [Compound A, N-(2-(3,4-dihydroxyphenyl)-2-hydroxyethyl)-N-methyl 2-(6-methoxy-2-naphthyl)propionamide], the IC50 (bovine retinal pieces; Bos taurus) is reported as 0.15 µM, the “% Inhibition of Influx” value ([1]; concentration 0.1%) is reported as 40% and the “inhibition of neutrophil influx into the rat eye (in words)” value [1] is reported as “significantly inhibited neutrophil influx”. For the same molecule, the IC50 (5-lipoxygenase) was 4 µM.
For `COc1ccc2cc(C(C)C(=O)OCCC3(C)CCc4c(C)c(O)c(C)c(C)c4O3)ccc2c1` (stereo not drawn) [Compound D, 2-(6-hydroxy-2,5,7,8-tetramethyl-3,4-dihydro-2H-benzo[1,2-b]pyran-2yl)ethyl 2-(6-methoxy-2-naphthyl)propionate], the IC50 (bovine retinal pieces; Bos taurus) was 0.006 µM, the “% Inhibition of Influx” value ([1]; concentration 1.0%) was 40% and the “inhibition of neutrophil influx into the rat eye (in words)” value [1] was “significantly inhibited neutrophil influx”. For the same molecule, the IC50 (5-lipoxygenase) was 1 µM and the IC50 [2] was 2.23 µM.
